In patent US20220380318A1, “SUBSTITUTED SULFONYL AMIDES FOR CONTROLLING ANIMAL PESTS” (Bayer Aktiengesellschaft, priority 2019, published 2022):

Columns and labels:
Format in all cases: in vivo
Meloidogyne incognita [1] = experiment: Meloidogyne incognita test (sand, acetone formulation, gall formation after 14 days); conditions: 336 h, application rate 4 ppm, lettuce in sand, read-out: nematicidal efficacy in % (formation of galls)
Experimental: Meloidouyne incognita Test Solvent: 125.0 parts by weight of acetone To produce an appropriate active ingredient formulation, 1 part by weight of active ingredient is mixed with the stated amount of solvent and the concentrate is diluted to the desired concentration with water. Vessels are filled with sand, active ingredient solution, an egg/larvae suspension of the southern root-knot nematode (Meloidogyne incognita) and lettuce seeds. The lettuce seeds germinate and the plants develop. The galls develop on the roots. After 14 days, the nematicidal efficacy in % is determined by the formation of galls. 100% means that no galls were found; 0% means that the number of galls on the treated plants corresponds to the untreated control.

Meloidogyne incognita [2] = experiment: Meloidogyne incognita test (soil drench, gall formation after 21 days); conditions: 504 h, lettuce, read-out: nematicidal efficacy in % (formation of galls); for pest or weed control at 0.125 ppm: application rate 0.125 ppm; for pest or weed control at 0.25 ppm: application rate 0.25 ppm; for pest or weed control at 1 ppm: application rate 1 ppm
Experimental: (§1) Meloidogyne incognita Test Solvent: 7 parts by weight of dimethylformamide Emulsifier: 2.5 parts by weight of alkylaryl polyglycol ether To produce a suitable active ingredient formulation, 1 part by weight of active ingredient is mixed with the specified amounts of solvent and emulsifier, and the concentrate is diluted with water to the desired concentration, it being necessary to take account of the volume of soil which is drenched. It should be ensured that a concentration of 20 ppm of emulsifier in the soil is not exceeded. To produce further test concentrations, water is used for dilution. Pots filled with soil (loamy sand) are watered with the active ingredient solution. An egg/larvae suspension of the southern root-knot nematode (Meloidogyne incognita) is added, lettuce seeds are scattered over the surface of the soil, and they are covered over with quartz sand. The lettuce seeds germinate and the plants develop. The galls develop on the roots. After 21 days, the nematicidal efficacy in % is determined by the formation of galls. 100% means that no galls have been found; 0% means that the number of galls on the treated plants corresponds to the untreated control.

Meloidogyne incognita [3] = experiment: Meloidogyne incognita test (MELGIN), comparison with prior art; conditions: 504 h, after 21 days
Experimental: as §1, with “Test (MELGIN)” for “Test”

Heterodera pallida = Heterodera pallida - soil mixing test (HETDPA); conditions: Globodera pallida, 1008 h, cysts on potato roots after six weeks, Abbott formula, read-out: % Efficacy
Experimental: Heterodera pallida-Soil Mixing Test ([…]) Solvent: 4 parts by weight of acetone Emulsifier: 1 part by weight of alkylaryl polyglycol ether To produce a suitable preparation of active ingredient, 1 part by weight of active ingredient is mixed with the stated amounts of solvent and emulsifier, and the concentrate is diluted with water to the desired concentration. This active ingredient formulation is mixed with soil (loamy sand). The stated concentration refers to the amount of active ingredient per volume unit of soil (ppm=mg/l). 40 cysts of the white potato nematode (Heterodera pallida, 250-275 larvae/cysts) are introduced into 500 ml of this active ingredient soil and mixed. The mixture is introduced into pots and planted in each case with a one-week-old potato seedling (Solanum tuberosum). After six weeks, the potato roots are checked for cysts and the average number per pot is calculated as efficacy by the Abbott formula: [formula] B=treated plants K=untreated control plants

## O=C(NS(=O)(=O)c1cc(OCC(F)F)ccc1Cl)c1nc(Cl)n([C@@H]2C[C@H]2C(F)(F)F)c1Br (racemic) [I-11]
Meloidogyne incognita [1]
  pest or weed control at 4 ppm: 100%
Meloidogyne incognita [2]
  pest or weed control at 0.125 ppm: 98%

## COc1ccc(Cl)c(S(=O)(=O)NC(=O)c2nc(Cl)n([C@H]3C[C@@H]3C(F)(F)F)c2Br)c1 (racemic) [I-01]
Meloidogyne incognita [1]
  pest or weed control at 4 ppm: 100%
Meloidogyne incognita [2]
  pest or weed control at 0.125 ppm: 90%
  pest or weed control at 0.25 ppm: 97%
  pest or weed control at 1 ppm: 100%
Meloidogyne incognita [3]; read-out: % Efficacy
  Emax at 0.015625 ppm: 58.3%
Meloidogyne incognita [3]
  nematicidal efficacy (% gall reduction) at 0.03125 ppm: 95%
Heterodera pallida
  Emax at 0.25 ppm: 75%
  Emax at 0.5 ppm: 90%
  Emax at 1 ppm: 100%

## Cc1ccccc1S(=O)(=O)NC(=O)c1nc(Br)n([C@H]2C[C@@H]2C(F)(F)F)c1Br (racemic) [I-08]
Meloidogyne incognita [1]
  pest or weed control at 4 ppm: 100%
Meloidogyne incognita [2]
  pest or weed control at 0.25 ppm: 100%
  pest or weed control at 1 ppm: 100%

## COc1ccc(Br)c(S(=O)(=O)NC(=O)c2nc(Cl)n([C@H]3C[C@@H]3C(F)(F)F)c2Br)c1 (racemic) [I-05]
Meloidogyne incognita [1]
  pest or weed control at 4 ppm: 100%
Meloidogyne incognita [2]
  pest or weed control at 0.125 ppm: 100%
  pest or weed control at 0.25 ppm: 100%
  pest or weed control at 1 ppm: 100%

## CCOc1ccc(Cl)c(S(=O)(=O)NC(=O)c2nc(Cl)n([C@H]3C[C@@H]3C(F)(F)F)c2Br)c1 (racemic) [I-04]
Meloidogyne incognita [1]
  pest or weed control at 4 ppm: 100%
Meloidogyne incognita [2]
  pest or weed control at 0.125 ppm: 90%
  pest or weed control at 0.25 ppm: 100%
  pest or weed control at 1 ppm: 100%
Meloidogyne incognita [3]
  nematicidal efficacy (% gall reduction) at 0.03125 ppm: 97%

## COc1ccc(Cl)c(S(=O)(=O)NC(=O)c2nc(Br)n([C@H]3C[C@@H]3C(F)(F)F)c2Br)c1 (racemic) [I-06]
Meloidogyne incognita [1]
  pest or weed control at 4 ppm: 100%
Meloidogyne incognita [2]
  pest or weed control at 0.125 ppm: 100%
  pest or weed control at 0.25 ppm: 100%
  pest or weed control at 1 ppm: 100%
Meloidogyne incognita [3]; read-out: % Efficacy
  Emax at 0.015625 ppm: 65%
Meloidogyne incognita [3]
  nematicidal efficacy (% gall reduction) at 0.03125 ppm: 92.5%

## COc1ccc(Br)c(S(=O)(=O)NC(=O)c2nc(Br)n([C@H]3C[C@@H]3C(F)(F)F)c2Br)c1 (racemic) [I-07]
Meloidogyne incognita [1]
  pest or weed control at 4 ppm: 100%
Meloidogyne incognita [2]
  pest or weed control at 0.125 ppm: 100%
  pest or weed control at 0.25 ppm: 100%
  pest or weed control at 1 ppm: 100%
Meloidogyne incognita [3]; read-out: % Efficacy
  Emax at 0.03125 ppm: 90%
Meloidogyne incognita [3]; 0.0625 ppm
  nematicidal efficacy (% gall reduction) at 0.0625 ppm: 100%
Meloidogyne incognita [3]
  nematicidal efficacy (% gall reduction) at 0.125 ppm: 100%

## COc1ccc(Br)c(S(=O)(=O)NC(=O)c2nc(Cl)n([C@@H]3C[C@H]3C(F)(F)F)c2Cl)c1 [Ex. I-465, reference compound]
Meloidogyne incognita [3]; read-out: % Efficacy
  Emax at 0.03125 ppm: 0%
Meloidogyne incognita [3]; 0.0625 ppm, read-out: % Efficacy
  Emax at 0.0625 ppm: 25%
Meloidogyne incognita [3]
  nematicidal efficacy (% gall reduction) at 0.125 ppm: 95%

## COc1ccc(Cl)c(S(=O)(=O)NC(=O)c2nc(Cl)n([C@@H]3C[C@H]3C(F)(F)F)c2Cl)c1 [Ex. I-470, reference compound]
Meloidogyne incognita [3]; read-out: % Efficacy
  Emax at 0.015625 ppm: 0%
Meloidogyne incognita [3]
  nematicidal efficacy (% gall reduction) at 0.03125 ppm: 48%
Heterodera pallida
  Emax at 0.25 ppm: 0%
  Emax at 0.5 ppm: 0%
  Emax at 1 ppm: 70%

## O=C(NS(=O)(=O)c1ccccc1Cl)c1nc(Br)n(CCC(F)(F)F)c1Cl [Ex. I-440, reference compound]
Meloidogyne incognita [3]
  nematicidal efficacy (% gall reduction) at 0.125 ppm: 0%
  nematicidal efficacy (% gall reduction) at 0.5 ppm: 0%

## COc1ccc(Cl)c(S(=O)(=O)NC(=O)c2nc(Br)n([C@H]3C[C@@H]3C(F)(F)F)c2Cl)c1 (racemic) [I-12]
Meloidogyne incognita [1]
  pest or weed control at 4 ppm: 100%
Meloidogyne incognita [2]
  pest or weed control at 0.125 ppm: 100%
Meloidogyne incognita [3]
  nematicidal efficacy (% gall reduction) at 0.125 ppm: 100%

## CCOc1ccc(Cl)c(S(=O)(=O)NC(=O)c2nc(Cl)n([C@@H]3C[C@H]3C(F)(F)F)c2Cl)c1 [Ex. I-459, reference compound]
Meloidogyne incognita [3]
  nematicidal efficacy (% gall reduction) at 0.03125 ppm: 10%

## CCOc1ccc(Cl)c(S(=O)(=O)NC(=O)c2nc(Br)n([C@H]3C[C@@H]3C(F)(F)F)c2Br)c1 (racemic) [I-09]
Meloidogyne incognita [1]
  pest or weed control at 4 ppm: 100%
Meloidogyne incognita [2]
  pest or weed control at 0.125 ppm: 90%
  pest or weed control at 0.25 ppm: 100%
  pest or weed control at 1 ppm: 100%

## Cc1ccccc1S(=O)(=O)NC(=O)c1nc(Cl)n([C@H]2C[C@@H]2C(F)(F)F)c1Br (racemic) [I-03]
Meloidogyne incognita [1]
  pest or weed control at 4 ppm: 100%
Meloidogyne incognita [2]
  pest or weed control at 0.125 ppm: 90%
  pest or weed control at 0.25 ppm: 100%
  pest or weed control at 1 ppm: 100%

## O=C(NS(=O)(=O)c1cc(OCC(F)F)ccc1Cl)c1nc(Br)n([C@@H]2C[C@H]2C(F)(F)F)c1Br (racemic) [I-10]
Meloidogyne incognita [1]
  pest or weed control at 4 ppm: 100%
Meloidogyne incognita [2]
  pest or weed control at 0.125 ppm: 100%

## O=C(NS(=O)(=O)c1cc(Cl)ccc1Cl)c1nc(Cl)n([C@H]2C[C@@H]2C(F)(F)F)c1Br (racemic) [I-02]
Meloidogyne incognita [1]
  pest or weed control at 4 ppm: 100%
Meloidogyne incognita [2]
  pest or weed control at 0.125 ppm: 90%
  pest or weed control at 0.25 ppm: 90%
  pest or weed control at 1 ppm: 100%

## O=C(NS(=O)(=O)c1ccccc1Cl)c1nc(Br)n([C@@H]2C[C@H]2C(F)(F)F)c1Cl (racemic) [I-13]
Meloidogyne incognita [1]
  pest or weed control at 4 ppm: 100%
Meloidogyne incognita [2]
  pest or weed control at 1 ppm: 80%
Meloidogyne incognita [3]
  nematicidal efficacy (% gall reduction) at 0.5 ppm: 70%
